From patent US12180187B2, “1-phenyl-5-azinylpyrazolyl-3-oxyalkyl acids and their use for controlling unwanted plant growth” (BAYER AKTIENGESELLSCHAFT, priority 2019, dated 2024)

Tests used:
MATIN [1] = experiment: Pre-emergence action against MATIN, 1280 g/ha; assay type: in vivo, Tripleurospermum inodorum (Matricaria inodora); settings: scored visually after about 3 weeks vs untreated controls (100% = plants have died)
Source text: (§1) 1. Pre-Emergence Herbicidal Effect and Crop Plant Compatibility a) Seeds of mono- and dicotyledonous weed plants are placed in plastic pots in sandy loam soil (doubly sown with one species each of mono- or dicotyledonous weed plants per pot) and covered with soil. The compounds of the invention, formulated in the form of wettable powders (WP) or as emulsion concentrates (EC), are then applied onto the surface of the covering soil as aqueous suspension or emulsion with addition of 0.5% additive at a water application rate equivalent to 600 litres per hectare. After the treatment, the pots are placed in a greenhouse and kept under good growth conditions for the trial plants. After about 3 weeks, the effect of the preparations is scored visually in comparison with untreated controls as percentages. For example, 100% activity=the plants have died, 0% activity=like control plants. 1. Pre-Emergence Effectiveness Tables 1 to 12 below show the effects of selected compounds of the general formula (I) according to Tables 1 and 2 on various harmful plants and at an application rate corresponding to 1280 g/ha, which were obtained by the experimental procedure mentioned above.

DIGSA [2] = experiment: Pre-emergence action against DIGSA, 1280 g/ha; assay type: in vivo, Digitaria sanguinalis; settings: visual scoring after about 3 weeks vs untreated controls, 100% = plants have died, 0% = like control plants
Source text: as §1

STEME = experiment: Pre-emergence action against STEME, 1280 g/ha; assay type: in vivo, Stellaria media; settings: scored visually after about 3 weeks vs untreated controls (100% = plants have died)
Source text: as §1

LOLRI = experiment: Pre-emergence action against LOLRI, 1280 g/ha; assay type: in vivo, Lolium rigidum; settings: visual scoring after about 3 weeks vs untreated controls, 100% = plants have died, 0% = like control plants
Source text: as §1

AMARE [3] = experiment: Post-emergence action against AMARE, 1.28 kg/ha; assay type: in vivo, Amaranthus retroflexus; settings: dosage 1280 g/ha, visual rating about 3 weeks after treatment vs untreated controls (100% = plants died)
Procedure: (§2) • a) Seeds of mono- and dicotyledonous weed plants are placed in plastic pots in sandy loam soil (twin sowing with one species each of mono- or dicotyledonous weed plants per pot), covered with soil and cultivated in a greenhouse under controlled growth conditions. 2 to 3 weeks after sowing, the test plants are treated at the one-leaf stage. The compounds of the invention, formulated in the form of wettable powders (WP) or as emulsion concentrates (EC), are applied to the green parts of the plants as aqueous suspension or emulsion with addition of 0.5% additive at a water application rate equivalent to 600 litres per hectare. After the test plants have been kept in the greenhouse under optimum growth conditions for about 3 weeks, the activity of the preparations is rated visually in comparison to untreated controls. For example, 100% activity=the plants have died, 0% activity=like control plants. As shown by the results, compounds of the general formula (I) of the invention, in post-emergence treatment, have very good herbicidal efficacy (90% to 100% herbicidal action) against harmful plants such as Abutilon theophrasti, Digitaria sanguinalis, Echinochloa crus-galli, Matricaria inodora, Poa annua, at an application rate of 1.28 kg of active substance per hectare.

DIGSA [4] = experiment: Post-emergence action against DIGSA, 1.28 kg/ha; assay type: in vivo, Digitaria sanguinalis; settings: dosage 1280 g/ha, visual rating about 3 weeks after treatment vs untreated controls
Procedure: as §2

ABUTH = experiment: Post-emergence action against ABUTH, 1.28 kg/ha; assay type: in vivo, Abutilon theophrasti; settings: dosage 1280 g/ha, visual rating about 3 weeks after treatment vs untreated controls (100% = plants died)
Procedure: as §2

AMARE [5] = experiment: Pre-emergence action against AMARE, 1280 g/ha; assay type: in vivo, Amaranthus retroflexus; settings: scored visually after about 3 weeks vs untreated controls (100% = plants have died)
Source text: as §1

VERPE [6] = experiment: Post-emergence action against VERPE, 1.28 kg/ha; assay type: in vivo, Veronica persica; settings: dosage 1280 g/ha, visual rating about 3 weeks after treatment vs untreated controls (100% = plants died)
Procedure: as §2

ECHCG [7] = experiment: Pre-emergence action against ECHCG, 1280 g/ha; assay type: in vivo, Echinochloa crus-galli; settings: visual scoring after about 3 weeks vs untreated controls, 100% = plants have died, 0% = like control plants
Source text: as §1

SETVI [8] = experiment: Pre-emergence action against SETVI, 1280 g/ha; assay type: in vivo, Setaria viridis; settings: visual scoring after about 3 weeks vs untreated controls, 100% = plants have died, 0% = like control plants
Source text: as §1

POAAN [9] = experiment: Post-emergence action against POAAN, 1.28 kg/ha; assay type: in vivo, Poa annua; settings: dosage 1280 g/ha, visual rating about 3 weeks after treatment vs untreated controls
Procedure: as §2

ALOMY [10] = experiment: Pre-emergence action against ALOMY, 1280 g/ha; assay type: in vivo, Alopecurus myosuroides; settings: visual scoring after about 3 weeks vs untreated controls, 100% = plants have died, 0% = like control plants
Source text: as §1

MATIN [11] = experiment: Post-emergence action against MATIN, 1.28 kg/ha; assay type: in vivo, Tripleurospermum inodorum (Matricaria inodora); settings: dosage 1280 g/ha, visual rating about 3 weeks after treatment vs untreated controls (100% = plants died)
Procedure: as §2

VERPE [12] = experiment: Pre-emergence action against VERPE, 1280 g/ha; assay type: in vivo, Veronica persica; settings: scored visually after about 3 weeks vs untreated controls (100% = plants have died)
Source text: as §1

POAAN [13] = experiment: Pre-emergence action against POAAN, 1280 g/ha; assay type: in vivo, Poa annua; settings: visual scoring after about 3 weeks vs untreated controls, 100% = plants have died, 0% = like control plants
Source text: as §1

ALOMY [14] = experiment: Post-emergence action against ALOMY, 1.28 kg/ha; assay type: in vivo, Alopecurus myosuroides; settings: dosage 1280 g/ha, visual rating about 3 weeks after treatment vs untreated controls
Procedure: as §2

SETVI [15] = experiment: Post-emergence action against SETVI, 1.28 kg/ha; assay type: in vivo, Setaria viridis; settings: dosage 1280 g/ha, visual rating about 3 weeks after treatment vs untreated controls
Procedure: as §2

AMARE [16] = experiment: Pre-emergence action at 320 g/ha against AMARE; assay type: in vivo, Amaranthus retroflexus; settings: visual scoring after about 3 weeks vs untreated controls
Source text: (§3) b) Seeds of monocotyledonous and dicotyledonous weed plants and crop plants are placed in plastic or organic planting pots and covered with soil. The compounds of the invention, formulated in the form of wettable powders (WP) or as emulsion concentrates (EC), are then applied onto the surface of the covering soil as aqueous suspension or emulsion with addition of 0.5% additive at a water application rate of 600 l/ha (converted). After the treatment, the pots are placed in a greenhouse and kept under good growth conditions for the trial plants. After about 3 weeks, the effect of the preparations is scored visually in comparison with untreated controls as percentages. For example, 100% activity=the plants have died, 0% activity=like control plants. Tables 13 to 26 below show the effects of selected compounds of the general formula (I) on various harmful plants and at an application rate corresponding to 320 g/ha, which were obtained by the experimental procedure mentioned above.

VERPE [17] = experiment: Pre-emergence action at 320 g/ha against VERPE; assay type: in vivo, Veronica persica; settings: visual scoring after about 3 weeks vs untreated controls
Source text: as §3

ALOMY [18] = experiment: Pre-emergence action at 320 g/ha against ALOMY; assay type: in vivo, Alopecurus myosuroides; settings: scored visually after about 3 weeks vs untreated controls (100% = plants have died)
Source text: as §3

VIOTR = experiment: Pre-emergence action at 320 g/ha against VIOTR; assay type: in vivo, Viola tricolor; settings: dosage 320 g/ha
Source text: as §3

ECHCG [19] = experiment: Post-emergence action against ECHCG, 1.28 kg/ha; assay type: in vivo, Echinochloa crus-galli; settings: dosage 1280 g/ha, visual rating about 3 weeks after treatment vs untreated controls
Procedure: as §2

Row | SMILES | Pre-emergence action against MATIN (MATIN [1]) | Pre-emergence action against DIGSA (DIGSA [2]) | Pre-emergence action against STEME (STEME) | Pre-emergence action against LOLRI (LOLRI) | Post-emergence action against AMARE (AMARE [3]) | Post-emergence action against DIGSA (DIGSA [4]) | Post-emergence action against ABUTH (ABUTH) | Pre-emergence action against AMARE (AMARE [5]) | Post-emergence action against VERPE (VERPE [6]) | Pre-emergence action against ECHCG (ECHCG [7]) | Pre-emergence action against SETVI (SETVI [8]) | Post-emergence action against POAAN (POAAN [9]) | Pre-emergence action against ALOMY (ALOMY [10]) | Post-emergence action against MATIN (MATIN [11]) | Pre-emergence action against VERPE (VERPE [12]) | Pre-emergence action against POAAN (POAAN [13]) | Post-emergence action against ALOMY (ALOMY [14]) | Post-emergence action against ECHCG (ECHCG [19]) | other results
1 | CCOC(=O)COc1nn(-c2ccccc2F)c(-c2ccc(F)cn2)c1Br [II-014] | 100% | 100% | 90% | 100% | 90% | 90% | 90% | 90% | 90% | 100% | 90% | 90% | 100% | 90% | 100% | 100% | – | – | –
2 | CCOC(=O)COc1nn(-c2ccc(F)cc2F)c(-c2ccc(F)nc2)c1F [VII-027] | 90% | 90% | 100% | 100% | 90% | 100% | – | 90% | 90% | 90% | 90% | – | – | – | – | 90% | 100% | – | Post-emergence action against SETVI (SETVI [15]): 90%
3 | CCOC(=O)COc1nn(-c2ccccc2F)c(-c2ccc(F)nc2)c1C(F)F [VII-078] | – | – | – | – | – | – | – | – | – | – | – | – | – | – | – | – | – | – | Pre-emergence action against AMARE in % (AMARE [16]): 100%; Pre-emergence action against VERPE in % (VERPE [17]): 80%; Pre-emergence action at 320 g/ha against ALOMY in % (ALOMY [18]): 80%; Pre-emergence action against VIOTR in % (VIOTR): 90%
4 | O=C(COc1nn(-c2ccccc2F)c(-c2ccc(F)nc2)c1Br)OCc1ccco1 [VII-098] | 90% | 100% | 100% | 100% | – | 100% | 90% | 100% | 90% | 100% | 100% | 100% | 100% | 100% | 100% | 100% | 100% | 90% | –
5 | COC(=O)COc1nn(-c2ccccc2F)c(-c2ccc(F)nc2)c1SC [VII-123] | 100% | 100% | 90% | 90% | 90% | – | 90% | 90% | 90% | – | – | 100% | – | 90% | 90% | 100% | 90% | 100% | –
